According to patent US20210386367A1, “DEVICES AND SYSTEMS FOR GASTROINTESTINAL MICROBIOME DETECTION AND MANIPULATION” (Progenity, Inc., priority 2018, published 2021):
≈ marks a conversion by molar mass, not a printed value. Read-outs that look alike come from different tables or passages of the source.

Experiments:
[1] = system: Prevotella spp.; assay: Agar dilution MIC, 30 clinical isolates; assay type: cell-based; conditions: for Mode: modal MIC
[2] = system: Streptococcus spp. spontaneous mutants; assay: organism not typed; assay type: cell-based
Summary of the method: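 Spontaneous mutants from drug selection plates were tested by CLSI broth microdilution in MHB II with two-fold serial drug dilutions. Inoculum was about 5×10^5 CFU/mL, incubated aerobically at 35° C. for 18-20 hr. MIC was the lowest concentration inhibiting visible growth.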

[3] = system: E. coli spontaneous mutants; assay: Broth microdilution MIC of spontaneous mutants; assay type: cell-based, Escherichia coli; conditions: Escherichia coli
Protocol: Select isolates were subcultured onto agar containing drug at the selection concentration, were identified by MALDI, and were frozen for broth microdilution MIC testing as described below.
To determine whether colonies growing on drug selection plates had elevated MIC values to the selecting antibiotic, susceptibility testing by broth microdilution was conducted on isolated mutants following methodology recommended by CLSI (1), (2), and (3) “Performance Standards for Antimicrobial Susceptibility Testing; Twenty-Eighth Informational Supplement.,” CLSI document M100-S28, 2018.
All wells in columns 2 through 12 of a standard 96-well microdilution plate (Costar 3795) were filled with 150 μL of the appropriate diluent. Then, 300 μL of the test agents were added to the wells of column 1 of the plates at […] the highest final concentration to be tested. Serial two-fold dilutions were made across the rows through column 11 using the Biomek 2000. The wells of column 12 contained no drug and served as the growth control wells. This plate served as the “mother plate” from which selected MIC assay plates or “daughter plates” were made.
2 μL of drug solution from each well of a mother plate was added to each corresponding well of the daughter plate in a single step. A standardized inoculum of each aerobic test organism was prepared per CLSI methods to equal a 0.5 McFarland standard, followed by a dilution of 1:20 in MHB II. The plates were then inoculated with 10 μL of the diluted inoculum using the Biomek 2000 from low to high drug concentration, resulting in a final concentration of approximately 5×10^5 CFU/mL. An un-inoculated plate was incubated for the purpose of assessing solubility of the drug in the test media.
The plates for the aerobic tests were stacked 3-4 high, covered with a sterile lid on the top plate, and incubated aerobically at 35° C. for 18-20 hr. The MIC was recorded as the lowest concentration of drug that inhibited visible growth of the organism.

[4] = system: Streptococcus spp.; assay: Spontaneous mutation frequency assay; assay type: cell-based; conditions: selection at 4× and 8× MIC
Protocol: Initial values of the MIC were determined by agar dilution in accordance with guidelines from the Clinical and Laboratory Standards Institute (CLSI; (1) “Methods for Dilution Antimicrobial Susceptibility Tests for Bacteria That Grow Aerobically; Approved Standard; 11th ed.,” CLSI standard M07, 2018; (2) “Methods for Antimicrobial Susceptibility Testing of Anaerobic Bacteria; Approved Standard—Eighth Edition,” CLSI document M11-A8, 2012.).
The agar plates were prepared by mixing a ratio of 1.0 mL of concentrated drug to 49.0 mL of the appropriate molten (47° C.) agar; the drug-supplemented agar was mixed, poured into 15-by-150 mm petri dishes and allowed to solidify and dry at room temperature prior to inoculation. […] Each plate was allowed to cool at room temperature for at least 1 hr.
The isolates were streaked onto the appropriate agar medium and incubated for 20 hr (aerobes) or 48 hr (Bacteroides under anaerobic conditions). Using a sterile swab, several well-isolated colonies were removed and resuspended in sterile saline at a heavy cell density. Each plate was inoculated with 0.5 mL of the cell suspension (each test concentration was inoculated in duplicate). The target inoculum for each spontaneous mutation plate was 10^9-10 CFU. In addition, a portion of the inoculum from each isolate was enumerated by making dilutions, spreading on agar and counting colonies.
Once the inoculum was absorbed into the agar, the plates were incubated at 35° C. Aerobes were examined at 24 and 48 hr, and resulting colonies were counted. Bacteroides were incubated anaerobically for 48-72 hr in the anaerobe chamber and colonies were counted.
Colony counts from plates used to enumerate the initial inoculum density and from the resulting spontaneous mutation frequency test plates were determined. The inoculum size was calculated as CFU inoculated per plate. The spontaneous mutation frequency was calculated using the counts from duplicate spontaneous mutation assay test plates as follows:
If there were no colonies on the antibiotic selection plates, the spontaneous mutation frequency was reported as less than the frequency observed with one colony to indicate that the spontaneous mutation frequency was less than the limit of detection (one CFU). […] The mutation prevention concentration (MPC) was reported as the lowest concentration for which no mutants were selected.

[5] = system: S. agalactiae ATCC 13813; assay: Broth microdilution MIC (time-kill study); assay type: cell-based, Streptococcus agalactiae
[6] = 30 Prevotella spp. clinical isolates
[7] = S. pneumoniae ATCC 49619, selected on rifaximin 4X MIC, Colony A
[8] = S. pneumoniae ATCC 49619, selected on rifaximin 4X MIC, Colony B
[9] = S. pneumoniae ATCC 49619, selected on rifaximin 8X MIC, Colony A
[10] = S. pneumoniae ATCC 49619, selected on rifaximin 8X MIC, Colony B
[11] = S. pneumoniae ATCC 49619 Parent
[12] = S. pyogenes ATCC 49399, selected on rifaximin 4X MIC, Colony A
[13] = S. pyogenes ATCC 49399, selected on rifaximin 4X MIC, Colony B
[14] = S. pyogenes ATCC 49399, selected on rifaximin 8X MIC, Colony A
[15] = S. pyogenes ATCC 49399, selected on rifaximin 8X MIC, Colony B
[16] = S. agalacttae ATCC 13813 (so in the source)

With Cc1ncc([N+](=O)[O-])n1CCO [MTZ] the “% R” value [1, 6] was 3%, the “% S” value [1, 6] was 97% and the MIC50 [1, 6] was 1 µg/mL (≈ 5.84 µM). It also gave an MIC90 [1, 6] of 8 µg/mL (≈ 46.7 µM), an MIC range [1, 6] of 0.12 to 32 µg/mL and a Mode [1, 6] of 1 µg/mL.

CO/N=C(\C(=O)N[C@@H]1C(=O)N2C(C(=O)O)=C(CSc3nc(=O)c(=O)[nH]n3C)CS[C@H]12)c1csc(N)n1 [ceftriaxone] was tested, and the MIC [2, 7] was 0.03 µg/mL (≈ 0.0541 µM), the MIC [2, 8] was 0.06 µg/mL (≈ 0.108 µM) and the MIC [2, 9] was 0.03 µg/mL (≈ 0.0541 µM). The MIC [2, 10] was 0.03 µg/mL (≈ 0.0541 µM), the MIC [2, 11] was 0.06 µg/mL (≈ 0.108 µM) and the MIC [2, 12] was 0.008 µg/mL (≈ 0.0144 µM). For the same compound, the MIC [2, 13] was 0.015 µg/mL (≈ 0.027 µM), the MIC [2, 14] was 0.015 µg/mL (≈ 0.027 µM) and the MIC [2, 15] was 0.008 µg/mL (≈ 0.0144 µM). The MIC ([2]; S. pyogenes ATCC 49399 Parent) was 0.015 µg/mL (≈ 0.027 µM), the MIC ([2]; Streptococcus, ATCC13813, S. agaloctiae ATCC 13813, selected on rifaximin 4X MIC, Colony A) was 0.015 µg/mL (≈ 0.027 µM) and the MIC ([2]; Streptococcus, ATCC13813, S. agaloctiae ATCC 13813, selected on rifaximin 4X MIC, Colony B) was 0.015 µg/mL (≈ 0.027 µM). It also gave an MIC ([2]; Streptococcus, ATCC13813, S. agaloctiae ATCC 13813, selected on rifaximin 8X MIC, Colony A) of 0.015 µg/mL (≈ 0.027 µM), an MIC ([2]; Streptococcus, ATCC13813, S. agaloctiae ATCC 13813, selected on rifaximin 8X MIC, Colony B) of 0.06 µg/mL (≈ 0.108 µM) and an MIC ([2]; Streptococcus, ATCC13813, S. agaloctiae ATCC 13813 Parent) of 0.015 µg/mL (≈ 0.027 µM). The MIC range [1] was 0.12 to 128 µg/mL, the isolates resistant [1] was 33% and the “isolates with intermediate resistance” value [1] was 20%. The “% I” value [1, 6] was 20%, the “% R” value [1, 6] was 33% and the “% S” value [1, 6] was 47%. For the same compound, the MIC50 [1, 6] was 32 µg/mL (≈ 57.7 µM), the MIC90 [1, 6] was 64 µg/mL (≈ 115 µM) and the MIC range [1, 6] was 0.12 to 128 µg/mL. The MIC50 ([1]; Prevotella, read-out: MIC50) was 32 µg/mL (≈ 57.7 µM), the MIC90 ([1]; Prevotella, read-out: MIC90) was 64 µg/mL (≈ 115 µM) and the Mode [1, 6] was 64 µg/mL. The MIC ([3]; ATCC25922, E. coli ATCC 25922, selected on rifaximin 4X MIC, Colony A) was 0.03 µg/mL, the MIC ([3]; ATCC25922, E. coli ATCC 25922, selected on rifaximin 4X MIC, Colony B) was 0.03 µg/mL and the MIC ([3]; ATCC25922, E. coli ATCC 25922, selected on rifaximin 8X MIC, Colony A) was 0.03 µg/mL. For the same compound, the MIC ([3]; ATCC25922, E. coli ATCC 25922 Parent (Table 52)) was 0.12 µg/mL, the MIC ([3]; ATCC35218, E. coli ATCC 35218, selected on rifaximin 4X MIC, Colony A) was 0.03 µg/mL and the MIC ([3]; ATCC35218, E. coli ATCC 35218, selected on rifaximin 4X MIC, Colony B) was 0.03 µg/mL. For the same compound, the MIC ([3]; ATCC35218, E. coli ATCC 35218, selected on rifaximin 8X MIC, Colony A) was 0.06 µg/mL, the MIC ([3]; ATCC35218, E. coli ATCC 35218, selected on rifaximin 8X MIC, Colony B) was 0.03 µg/mL and the MIC ([3]; ATCC35218, E. coli ATCC 35218 Parent (Table 52)) was 0.03 µg/mL. For the same compound, the MIC ([3]; E. coli MMX 1312, selected on ceftriaxone 4X MIC, Colony A) was 3 µg/mL, the MIC ([3]; E. coli MMX 1312, selected on ceftriaxone 4X MIC, Colony B) was 4 µg/mL and the MIC ([3]; E. coli MMX 1312, selected on ceftriaxone 4X MIC, Colony C) was 8 µg/mL. For the same compound, the MIC ([3]; E. coli MMX 1312, selected on ceftriaxone 8X MIC, Colony A) was 3 µg/mL, the MIC ([3]; E. coli MMX 1312, selected on ceftriaxone 8X MIC, Colony B) was 3 µg/mL and the MIC ([3]; E. coli MMX 1312, selected on ceftriaxone 8X MIC, Colony C) was 4 µg/mL. For the same compound, the MIC ([3]; E. coli MMX 1312, selected on rifaximin 4X MIC, Colony A) was 2 µg/mL, the MIC ([3]; E. coli MMX 1312, selected on rifaximin 4X MIC, Colony B) was 2 µg/mL and the MIC ([3]; E. coli MMX 1312, selected on rifaximin 8X MIC, Colony A) was 8 µg/mL. It also gave an MIC ([3]; E. coli MMX 1312, selected on rifaximin 8X MIC, Colony B) of 8 µg/mL, an MIC ([3]; E. coli MMX 1312 Parent) of 4 µg/mL and an MIC ([3]; E. coli MMX 1312 Parent (Table 49)) of 4 µg/mL. The MIC ([3]; E. coli MMX 1312 Parent (Table 52)) was 4 µg/mL, the MIC ([3]; E. coli MMX 1312 mutant selected on meropenem 4X MIC, colony A) was 4 µg/mL and the MIC ([3]; E. coli MMX 1312 mutant selected on meropenem 4X MIC, colony B) was 8 µg/mL. It also gave an MIC ([3]; E. coli MMX 1312 mutant selected on meropenem 4X MIC, colony C) of 4 µg/mL, an MIC ([3]; E. coli MMX 1312 mutant selected on meropenem 8X MIC, colony A) of 4 µg/mL and an MIC ([3]; E. coli MMX 1312 mutant selected on meropenem 8X MIC, colony B) of 4 µg/mL. For the same compound, the MIC ([3]; E. coli MMX 1312 mutant selected on meropenem 8X MIC, colony C) was 4 µg/mL, the Spontaneous Mutation Frequency [4] was ≤ 9.52×10^−10 and the MIC [5, 16] was 0.015 µg/mL (≈ 0.027 µM). It also gave an MIC ([5]; Streptococcus agalactiae, ATCC13813, broth microdilution, read-out: MIC) of 0.015 µg/mL (≈ 0.027 µM).

With CN[C@H](CC(C)C)C(=O)N[C@H]1C(=O)N[C@@H](CC(N)=O)C(=O)N[C@H]2C(=O)N[C@H]3C(=O)N[C@H](C(=O)N[C@H](C(=O)O)c4cc(O)cc(O)c4-c4cc3ccc4O)[C@H](O)c3ccc(c(Cl)c3)Oc3cc2cc(c3O[C@@H]2O[C@H](CO)[C@@H](O)[C@H](O)[C@H]2O[C@H]2C[C@](C)(N)[C@H](O)[C@H](C)O2)Oc2ccc(cc2Cl)[C@H]1O [vancomycin, Vancomycin] the MIC ([5]; Streptococcus agalactiae, ATCC13813, S. agalacttae ATCC 13813 (so in the source), read-out: MIC) was 0.5 µg/mL (≈ 0.345 µM).

For Penicillin, the MIC ([2]; S. agaloctiae ATCC 13813, selected on rifaximin 4X MIC, Colony A) was 0.015 µg/mL, the MIC ([2]; S. agaloctiae ATCC 13813, selected on rifaximin 4X MIC, Colony B) was 0.015 µg/mL and the MIC ([2]; S. agaloctiae ATCC 13813, selected on rifaximin 8X MIC, Colony A) was 0.015 µg/mL. It also gave an MIC ([2]; S. agaloctiae ATCC 13813, selected on rifaximin 8X MIC, Colony B) of 0.015 µg/mL, an MIC ([2]; S. agaloctiae ATCC 13813 Parent) of 0.015 µg/mL and an MIC [2, 7] of 0.12 µg/mL. It also gave an MIC [2, 8] of 0.25 µg/mL, an MIC [2, 9] of 0.25 µg/mL and an MIC [2, 10] of 0.25 µg/mL. For the same compound, the MIC [2, 11] was 0.25 µg/mL, the MIC [2, 12] was 0.004 µg/mL and the MIC [2, 13] was 0.008 µg/mL. For the same compound, the MIC [2, 14] was 0.004 µg/mL, the MIC [2, 15] was 0.004 µg/mL and the MIC ([2]; S. pyogenes ATCC 49399 Parent) was 0.008 µg/mL.

In the case of “piperacillin/tazobactam [piperacillin-tazobactam]”, the MIC [5, 16] is reported as 0.06 µg/mL.
